Earlier results as cited in paper PMC13062086, “A sstR2-targeted radiohybrid theranostic agent for PET imaging and β^- therapy with excellent preclinical performance” (npj Imaging, 2026).

Molecular target: T1, human serum albumin (HSA) (Homo sapiens, UniProt P02768)
T1 construct: purchased Daicel, Tokyo, Japan Chiralpak HSA column (50 × 3 mm, 5 μm, H13 h-2433)
Parameters: method as in earlier work
Conditions: literature-known values for calibration curve ref 2-3 (SI; main text 45, 46)

T1 sequence (P02768 25-609): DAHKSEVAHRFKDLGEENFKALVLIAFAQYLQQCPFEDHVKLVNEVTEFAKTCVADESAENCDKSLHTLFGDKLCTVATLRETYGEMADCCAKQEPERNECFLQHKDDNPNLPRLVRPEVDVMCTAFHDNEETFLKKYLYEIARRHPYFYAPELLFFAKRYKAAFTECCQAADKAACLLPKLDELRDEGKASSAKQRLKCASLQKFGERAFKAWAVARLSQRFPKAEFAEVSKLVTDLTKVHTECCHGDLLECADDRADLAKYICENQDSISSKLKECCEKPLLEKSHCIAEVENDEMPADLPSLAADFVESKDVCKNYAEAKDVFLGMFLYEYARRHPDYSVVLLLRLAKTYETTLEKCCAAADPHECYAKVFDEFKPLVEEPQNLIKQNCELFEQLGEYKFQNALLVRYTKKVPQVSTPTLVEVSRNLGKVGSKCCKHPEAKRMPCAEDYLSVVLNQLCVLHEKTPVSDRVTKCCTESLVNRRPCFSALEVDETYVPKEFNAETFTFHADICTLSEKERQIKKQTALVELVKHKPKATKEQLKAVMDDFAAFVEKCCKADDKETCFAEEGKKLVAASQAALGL

SMILES	HSA-binding
Nc1ccccc1 [Aniline]	14.06%
O=C(O)c1ccccc1 [Benzoic acid]	34.27%
OCc1ccccc1 [Benzyl alcohol]	13.15%
COc1ccc(Cl)cc1C(=O)NCCc1ccc(S(=O)(=O)NC(=O)NC2CCCCC2)cc1 [Glibenclamide]	99.00%
Oc1ccccc1 [Phenol]	20.69%
CCCN(CCC)S(=O)(=O)c1ccc(C(=O)O)cc1 [Probenecid]	95.00%
